From PubChem BioAssay (NCI)
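Following 48 hours of exposure in 96-well plates, responses at five concentrations were used to interpolate endpoints linearly. At the GI50, growth is halved. TGI marks complete inhibition of growth.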

What was measured:
Assay in all cases: inhibition of tumour cell growth, NCI panel, 48 h
NCI-H23 lung = system: NCI-H23 lung
BT-549 breast = system: BT-549 breast
HOP-92 NSCLC = system: HOP-92 NSCLC
UACC-257 melanoma = system: UACC-257 melanoma
K-562 leukemia = system: K-562 leukemia
PC-3 prostate = system: PC-3 prostate
MOLT-4 leukemia = system: MOLT-4 leukemia
DU-145 prostate = system: DU-145 prostate
HCT-15 colon = system: HCT-15 colon
COLO 205 colon = system: COLO 205 colon

SMILES | GI50 (NCI-H23 lung) [µM] | TGI (NCI-H23 lung) [µM] | GI50 (BT-549 breast) [µM] | TGI (BT-549 breast) [µM] | GI50 (HOP-92 NSCLC) [µM] | TGI (HOP-92 NSCLC) [µM] | GI50 (UACC-257 melanoma) [µM] | TGI (UACC-257 melanoma) [µM] | GI50 (K-562 leukemia) [µM] | TGI (K-562 leukemia) [µM] | GI50 (PC-3 prostate) [µM] | TGI (PC-3 prostate) [µM] | GI50 (MOLT-4 leukemia) [µM] | TGI (MOLT-4 leukemia) [µM] | GI50 (DU-145 prostate) [µM] | TGI (DU-145 prostate) [µM] | GI50 (HCT-15 colon) [µM] | TGI (HCT-15 colon) [µM] | GI50 (COLO 205 colon) [µM] | TGI (COLO 205 colon) [µM]
Cc1ccc(C2=C(c3ccccc3)C(c3ccccc3)Oc3ccc(C)cc32)cc1 (stereo not given) | 2.2 | 5.53 | 4.76 | 20.4 | 11.4 | 28.1 | 9.2 | 23.7 | 8.29 | 42.7 | 12.8 | 34.4 | 8.86 | 31.5 | 3.56 | 12.5 | 16.9 | 35.8 | – | –
O=[n+]1c2ccccc2n([O-])c2cc(Cl)ccc21 | 4 | 25 | 5.2 | 24.1 | 2.14 | 8.29 | 5.49 | 18.1 | 3.02 | 12.8 | – | – | 0.385 | 2.03 | 11.3 | 24.1 | 2.55 | 8.59 | 4.65 | 18.2
Cc1ccc(C2=Nc3c(N)ncnc3NC(c3ccc4c(c3)OCO4)C2)cc1 (stereo not given) | 10.2 | 63.3 | – | – | – | – | 40 | > 100 | 4.19 | > 100 | – | – | 2.66 | > 100 | 4.52 | 14.7 | 3.14 | 13.7 | 3.47 | 21.7
CCOC(=O)c1c(C)nc2c(c1N)CC(=O)N2CCc1ccccc1 | 5.46 | 23 | – | – | 0.496 | 18.7 | 4.68 | 19.4 | 0.424 | > 100 | 0.579 | 24.2 | 0.822 | 21.4 | 0.881 | 16 | 0.485 | 13.6 | 0.518 | 13.6
NCCOc1ccccc1/C=C1\c2ccccc2-c2ccc([N+](=O)[O-])cc21 | 1.7 | 3.23 | 1.5 | 2.84 | 1.33 | 2.75 | 1.7 | 3.31 | – | – | 1.52 | 2.96 | – | – | 1.03 | 2.21 | 1.2 | 2.53 | 1.75 | 3.44
Cc1ccc(C2=C(c3ccc(C)cc3)C3(c4ccc(C)cc4)C4C(=O)c5ccccc5C(=O)C4C2(c2ccc(C)cc2)S3=O)cc1 (stereo not given) | > 100 | > 100 | > 100 | > 100 | – | – | > 100 | > 100 | > 100 | > 100 | > 100 | > 100 | > 100 | > 100 | > 100 | > 100 | > 100 | > 100 | > 100 | > 100
CCCCc1n(Cc2ccc3ccccc3c2)cc[n+]1Cc1ccc2ccccc2c1 | 0.793 | 2.31 | – | – | – | – | 1.04 | 2.32 | – | – | 1.11 | 2.53 | 1.39 | 3.4 | 1.41 | 2.83 | – | – | – | –
COc1cc(-c2cc(/C=C/C(=O)c3ccc(Cl)c(Cl)c3)[nH]n2)cc(OC)c1OC | 23.4 | > 100 | 8.4 | 29.2 | 2.53 | 8.25 | 16.3 | 74 | 4.96 | 64.4 | 5.96 | > 100 | 4.38 | 40.6 | – | – | 4.29 | – | 1.26 | 15.8
Cc1cc(N2CCCC2)nc(NCc2cc(Nc3ccnc4cc(Cl)ccc34)ccc2F)n1 | 1.3 | 3.63 | 1.54 | 3.3 | 1.19 | 2.57 | 1.31 | 2.66 | – | – | 1.19 | 2.58 | – | – | 1.3 | 2.69 | 1.06 | 2.35 | 0.278 | 1.43
Cn1c2ccccc2c2c3[nH][nH]c(=O)c3c3c4ccccc4[nH]c3c21 | 1.85 | 8.37 | 1.59 | 5.3 | 3.73 | 8.98 | – | – | 3.3 | 15.9 | 2.03 | 11.3 | 1.89 | 5.55 | 2.45 | 29.1 | 2.47 | 35.7 | 4.74 | 21
O=[N+]([O-])c1cc(Cl)ccc1OCc1ccccc1 | – | 96.5 | – | – | – | 92.5 | – | > 100 | – | > 100 | – | – | – | > 100 | – | – | – | > 100 | – | > 100
COCCN1CCN(Cc2ccc(-c3n[nH]c4c3C(=O)c3c(NC(=O)NN5CCOCC5)cccc3-4)cc2)CC1 | 0.0227 | 0.129 | 0.0308 | 0.209 | – | – | 0.0336 | 0.281 | 0.032 | > 10 | 0.023 | > 3.86 | 0.0212 | 0.228 | 0.0267 | – | 0.117 | 2 | 0.0151 | 0.0474
O=S(=O)([O-])[O-].[Cl-].[NH2-].[NH2-].[NH2-].[NH2-].[Ru+3].c1ccncc1 | – | > 100 | – | – | – | > 100 | – | > 100 | – | > 100 | – | – | – | > 100 | – | – | – | > 100 | – | > 100
C/C(=N\NC(=S)N1CCCCCCCCCCCC1)c1ccccn1 | – | 2.81 | – | 1.6 | – | 0.42 | – | 0.414 | – | 0.121 | – | 1.1 | – | 1.07 | – | 1.94 | – | 1.6 | – | –
CCCCN(CCCC)CCC(O)c1cc2c(Cl)cc(Cl)cc2c2cc(C(F)(F)F)ccc12 (stereo not given) | – | 30.6 | – | – | – | 10.6 | – | 29.6 | – | 22.4 | – | 22.2 | – | 29.3 | – | 22 | – | 19.1 | – | 23.6
O=C1Nc2ccccc2/C1=C\c1nc(C2CCN(S(=O)(=O)c3ccc(F)cc3)CC2)n2ccccc12 | 4.29 | 68.4 | 1.85 | 8.48 | – | – | – | – | > 100 | > 100 | 4.98 | > 100 | > 100 | > 100 | 4.35 | > 100 | > 100 | > 100 | > 100 | > 100
CC(CNCCCNCCNCCCNCO)[N+](=O)[O-] (stereo not given) | – | 28.6 | – | – | – | 8.57 | – | 26.1 | – | 19.6 | – | – | – | 30.4 | – | – | – | 23.2 | – | 19.3
